The source of these data is ChEMBL document CHEMBL1201862, “PubChem BioAssay data set” (2004).

Assay in all cases: DTP human tumour cell line panel, 48 h
For experiment [1], the system named is HL-60.
In experiment [2] the test system is SN12C.
The test system of experiment [3] is K562.
The subject of experiment [4] is SF-295.
Experiment [5] deals with HOP-62.
Experiment [6] deals with UACC-62.
In experiment [7] the test system is HCT-116.
In experiment [8] the test system is Malme-3M.
The subject of experiment [9] is SK-MEL-5.
Experiment [10] relates to LOX IMVI.
Experiment [11] has as its system NCI-H460.
Experiment [12] deals with RPMI-8226.
In experiment [13] the test system is SF-268.
Experiment [14] relates to HT-29.
For experiment [15], the system named is HCT-15.
Experiment [16] relates to CAKI-1.
Experiment [17] concerns EKVX.

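Five compound concentrations were applied to cells in 96-well plates for 48 hours; endpoints were derived by simple linear interpolation of the resulting dose-response curve. GI50: concentration for 50% inhibition of growth.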 The source made the active and inactive calls. Rule as the data show it: active = GI50 up to about 1.1 µM and inactive = higher. Some results are limits rather than exact numbers.

By GI50 is commonly meant the concentration that inhibits growth by half. With `COc1nc(NC2OCC(OC(C)=O)C(OC(C)=O)C2OC(C)=O)c(-c2csc(N)n2)c(=O)n1C` (centres undefined), the GI50 in experiment [1], in [2], in experiment [3], in [4], in experiment [5] and in experiment [6] was > 100 µM (inactive) in each case. For the same molecule, the GI50 in [7], in [8], in [9], in [10], in [11] and in experiment [12] was > 100 µM (inactive) each time. The GI50 in experiment [13] was > 100 µM (inactive); in experiment [14], > 100 µM (inactive); in [15] it was more than 100 µM; in experiment [16], > 100 µM (inactive).
In the case of `c1ccc2c(c1)OCCOCCOc1ccccc1OCCO2`, the GI50 in experiment [1] was 24.8 µM (inactive); in experiment [2], 76 µM (inactive); in experiment [3], 28.4 µM (inactive); in [4], 62.4 µM (inactive); in experiment [5] it was 67.1 µM (inactive); in [6] it was 51.2 µM (inactive). Also, the GI50 is 40.5 µM (inactive) in experiment [7]; 33.1 µM (inactive) in [8]; 68.2 µM (inactive) in [9]; 51.9 µM (inactive) in experiment [10]; 36.3 µM (inactive) in experiment [11]; 22.3 µM (inactive) in experiment [12]. Moreover, the GI50 in experiment [13] is > 100 µM (inactive); in experiment [17], 75 µM (inactive); in experiment [14] it was 33.3 µM (inactive); in [15] it was 43.9 µM; in experiment [16] it was 78 µM (inactive).
For the molecule `CCN(CC)C(=O)C/C(C)=N/NC(=O)c1ccncc1`, the GI50 in [1], in experiment [3], in experiment [4], in [5], in experiment [6] and in [7] was > 100 µM (inactive) throughout. The GI50 in experiment [8], in [9], in experiment [10], in [11], in [12] and in experiment [13] was > 100 µM (inactive) in each case. The GI50 in experiment [17] and in [14] was > 100 µM (inactive) throughout.
In the case of `O=C1CC(c2ccccc2)NCN1` (centres undefined), the GI50 in experiment [1], in experiment [2], in experiment [3], in experiment [4], in experiment [5] and in [6] was > 100 µM (inactive) throughout. The GI50 in [7], in [8], in experiment [9], in [10], in [12] and in experiment [13] was > 100 µM (inactive) in each case. Further, the GI50 was > 100 µM (inactive) in experiment [17], > 100 µM (inactive) in [14], more than 100 µM in [15] and > 100 µM (inactive) in experiment [16].
For `CC1=C(c2cc(C(=O)Nc3ccc(Cl)c(Cl)c3)nc(N)n2)Sc2ccccc2N1`, the GI50 in [1] is > 100 µM (inactive); in experiment [2] it was > 100 µM (inactive); in [3], 62.5 µM (inactive); in [4], > 100 µM (inactive); in experiment [5], > 100 µM (inactive); in experiment [6], > 100 µM (inactive). Further, the GI50 in experiment [7], in experiment [8], in [9], in experiment [10], in [11] and in experiment [12] was > 100 µM (inactive) in each case. In addition, the GI50 in experiment [13] is > 100 µM (inactive); in experiment [17] it was 98.6 µM (inactive); in experiment [14] it was > 100 µM (inactive); in experiment [15], more than 100 µM; in experiment [16], > 100 µM (inactive).
Consider `CC(=O)Oc1c(C)c(-c2ccccc2)c(C)c(-c2ccccc2)c1C(=S)c1ccccc1`, for which the GI50 was 35.7 µM (inactive) in [1]; > 100 µM (inactive) in experiment [2]; > 100 µM (inactive) in experiment [3]; > 100 µM (inactive) in [4]; > 100 µM (inactive) in [5]; > 100 µM (inactive) in experiment [6]. In addition, the GI50 in experiment [7] was > 100 µM (inactive); in experiment [8], > 100 µM (inactive); in experiment [9] it was > 100 µM (inactive); in experiment [10], > 100 µM (inactive); in experiment [11], > 100 µM (inactive); in experiment [12], 70.8 µM (inactive). Moreover, the GI50 is > 100 µM (inactive) in [13], > 100 µM (inactive) in experiment [17], > 100 µM (inactive) in [14] and more than 100 µM in experiment [15].
For `CC1=C(O)C(=O)C2C(=O)C1C1Cc3ccccc3C21` (centres undefined), the GI50 in experiment [1], in [3], in [4], in [5], in [6] and in [8] was > 100 µM (inactive) each time. For the same molecule, the GI50 in [9], in experiment [10], in experiment [12], in experiment [13], in experiment [17] and in [14] was > 100 µM (inactive) throughout. Besides, the GI50 was more than 100 µM in experiment [15] and > 100 µM (inactive) in experiment [16].
Consider `O=C(O)c1c(-c2cccc3ccccc23)sc(-c2cccc3ccccc23)c1C(=O)O`, for which the GI50 in experiment [1] was > 100 µM (inactive); in experiment [2], > 100 µM (inactive); in [3], 90.8 µM (inactive); in experiment [4] it was > 100 µM (inactive); in [6], 46.1 µM (inactive); in [7], > 100 µM (inactive). For the same molecule, the GI50 is > 100 µM (inactive) in experiment [8]; > 100 µM (inactive) in [9]; > 100 µM (inactive) in [10]; > 100 µM (inactive) in experiment [11]; 58.1 µM (inactive) in [12]; > 100 µM (inactive) in experiment [13]. The results for the GI50 in experiment [17], in experiment [14] and in [15] were 90.8 µM (inactive), > 100 µM (inactive) and more than 100 µM, respectively.
As to `COc1ccc2c3c([nH]c2c1[N+](=O)[O-])C(C)N(C)CC3` (centres undefined), the GI50 in [1] is 39.6 µM (inactive); in experiment [2], > 100 µM (inactive); in experiment [3], 18.1 µM (inactive); in [4], 62.8 µM (inactive); in [5], > 100 µM (inactive); in [6], > 100 µM (inactive). For the same molecule, the GI50 in experiment [7] is > 100 µM (inactive); in experiment [8] it was > 100 µM (inactive); in experiment [9], 49.5 µM (inactive); in [11] it was > 100 µM (inactive); in experiment [12], 77.4 µM (inactive); in [13] it was > 10 µM (inactive). In addition, the GI50 is > 100 µM (inactive) in experiment [17], 18.9 µM (inactive) in experiment [14], 80.4 µM in experiment [15] and 36.6 µM (inactive) in experiment [16].
In the case of `O=C(O)c1c2c(c(C(=O)O)c3ccccc13)-c1ccccc1-2`, the GI50 was 36.4 µM (inactive) in experiment [1]; 35.1 µM (inactive) in experiment [2]; 33.6 µM (inactive) in experiment [3]; 33.6 µM (inactive) in experiment [4]; 31.7 µM (inactive) in experiment [5]; 22.9 µM (inactive) in experiment [6]. The GI50 in [7] was 78.9 µM (inactive); in experiment [8], 31 µM (inactive); in [10], 38.4 µM (inactive); in [12] it was 40.2 µM (inactive); in [13], 31.9 µM (inactive); in experiment [17], 31.4 µM (inactive). The GI50 in [14] is 47.4 µM (inactive).
`CC1=CC(=O)c2c(C=O)c(O)c(O)c(C(C)C)c2C1=O`: the GI50 is 25.6 µM (inactive) in experiment [1]; 35.1 µM (inactive) in experiment [2]; 26.1 µM (inactive) in [3]; 32.5 µM (inactive) in [5]; 20.3 µM (inactive) in experiment [6]; 18.3 µM (inactive) in experiment [7]. Besides, the GI50 was 22.9 µM (inactive) in experiment [8]; 0.494 µM (active) in experiment [9]; 14.9 µM (inactive) in experiment [10]; 28.8 µM (inactive) in [11]; 19.8 µM (inactive) in [12]; 20.9 µM (inactive) in experiment [13]. The GI50 in experiment [15] was 26.2 µM; in experiment [16] it was 21.2 µM (inactive).
For `CCc1cc(CCC(=O)Nc2c(C)cccc2C)n[nH]1`, the GI50 in experiment [1], in experiment [2], in experiment [3], in [4], in experiment [5] and in experiment [6] was > 100 µM (inactive) throughout. In addition, the GI50 in experiment [7], in experiment [8], in experiment [9], in experiment [11], in experiment [12] and in experiment [13] was > 100 µM (inactive) each time. Also, the GI50 in experiment [17] is > 100 µM (inactive); in experiment [14] it was > 100 µM (inactive); in experiment [15] it was more than 100 µM; in [16] it was > 100 µM (inactive).
In the case of `O=C(CSc1nnc[nH]1)C[P+](c1ccccc1)(c1ccccc1)c1ccccc1`, the GI50 is 31.7 µM (inactive) in experiment [1]; > 100 µM (inactive) in experiment [2]; 43.4 µM (inactive) in experiment [3]; > 100 µM (inactive) in [4]; > 100 µM (inactive) in [5]; 99.1 µM (inactive) in [6]. Besides, the GI50 in [8] was > 100 µM (inactive); in experiment [9], > 100 µM (inactive); in [10], > 100 µM (inactive); in experiment [11], 94.4 µM (inactive); in experiment [12], > 10 µM (inactive); in experiment [13], > 100 µM (inactive). The GI50 in experiment [17] is > 100 µM (inactive); in experiment [15], more than 100 µM; in experiment [16] it was 54.6 µM (inactive).
